Source: patent publication US9572760B2, “Uses of compounds and mixtures from Antrodia cinnamomea mycelia” (Simpson Biotech Co., Ltd., priority 2013, dated 2017)

Legend:
[1] = system: B16F10 cells; experiment: Melanin content in B16F10 cells after UV irradiation; format: cell-based, murine; details: 10 μM for 72 hrs prior to UV irradiation; UV alone 33.80±4.6% increase over non-UV cells (7.4±0.3 μg/mg protein)
Excerpt: (§1) The dermal fibroblast cell line CG1639 was obtained from the BCRC (Bioresource Collection and Research Center) and cultured in Dulbecco's modified Eagle media (DMEM, Gibco by Invitrogen) with 1% antibiotic antimycotic (Gibco by Invitrogen) and 15% fetal bovine serum (Gibco by Invitrogen). The fetal rat skin keratinocyte, FRSK cell line was obtained from the Japan HSRRB (Health Science Research Resources Bank) and cultured in Eagle's minimal essential media (MEM, Gibco by Invitrogen) supplemented with 10% fetal bovine serum (FBS) (Gibco by Invitrogen) and 1% antibiotic antimycotic (Gibco by Invitrogen). B16F10 cells, a murine melanoma cell line, were purchased from American Type Culture Collection (ATCC, Rockville, Md., USA) and was cultured in Eagle's Minimum Essential Medium (MEM; Sigma, St. Louis, Mo.) supplemented with 10% fetal bovine serum (FBS; HyClone Lab. Inc., Logan, Utah), 0.02% antibiotic-antimycotic liquid (penicillin, 10 000 U mL^−1; streptomycin, 10 000 μg mL^−1 and amphotericin B, 25 μg mL^−1; Invitrogen, Carlsbad, Calif.).
(§2) To investigate the induction of melanogenesis and the oxidative stress by direct UV irradiation, melanoma cells and keratocytes were irradiated with 8 J cm^−2 of UVA (FL15BLB, 352 nm, 15 W; Toshiba, Tokyo, Japan) and 10 mJ cm^−2 of UVB (G15T8E, 306 nm, 15 W; Sankyo Denki, Tokyo, Japan) in a HANKS' balanced salt solution (Sigma). The UV intensity was measured by using a Model UVX Digital Radiometer (UVP Inc., Upland, Calif.).
(§3) B16F10 and FRSK cells were exposed to Hepasim compounds A-D by two different concentrations (3 or 10 μM) for 72 hrs prior to UVA irradiation. DMEM was replaced with phosphate buffered saline (PBS) to avoid generation of medium-derived toxic photoproducts prior to UV irradiation. Cells were collected 24 hrs after UVA irradiation and assayed. For preparation of cell lysate, the harvested cells were pelleted by centrifugation and lysed in lysis buffer containing 50 mM Tris-HCl, 10 mM ethylene diaminetetraacetic acid (EDTA), 1% (v/v) Tri-ton X-100, phenylmethylsulfonyl fluoride (PMSF) (100 mg/ml) and pepstatin A (1 mg/ml) in DMSO and leupeptin (1 mg/ml) in H2O, pH 6.8. The cells were centrifuged at 10,000 rpm for 10 min and the total cell lysate was collected and stored at −80° C.
In order to measure the melanin contents, B16F10 cells were sonicated on ice and the mixture was centrifuged (25 000 g, 10 min, 4° C.). The supernatant was transferred, and pellets were dissolved in 0.85 N KOH at 60° C. for 20 min. Standard melanin (Sigma) was incubated in parallel. Spectrophotometric analysis of melanin content was then performed at an absorbance of 405 nm

[2] = target: T1, tyrosinase (Mus musculus, UniProt P11344); experiment: Cellular tyrosinase activity assay (L-DOPA oxidation) in B16F10 cells exposed to UV; format: cell-based, murine; details: UV alone 52.55±4.36% increase over non-UV control (3.0±0.5 U/mg protein)
T1 construct: endogenous in cells; host or cells: B16F10 murine melanoma cells (ATCC), total cell lysate
T1 sequence (P11344 19-533): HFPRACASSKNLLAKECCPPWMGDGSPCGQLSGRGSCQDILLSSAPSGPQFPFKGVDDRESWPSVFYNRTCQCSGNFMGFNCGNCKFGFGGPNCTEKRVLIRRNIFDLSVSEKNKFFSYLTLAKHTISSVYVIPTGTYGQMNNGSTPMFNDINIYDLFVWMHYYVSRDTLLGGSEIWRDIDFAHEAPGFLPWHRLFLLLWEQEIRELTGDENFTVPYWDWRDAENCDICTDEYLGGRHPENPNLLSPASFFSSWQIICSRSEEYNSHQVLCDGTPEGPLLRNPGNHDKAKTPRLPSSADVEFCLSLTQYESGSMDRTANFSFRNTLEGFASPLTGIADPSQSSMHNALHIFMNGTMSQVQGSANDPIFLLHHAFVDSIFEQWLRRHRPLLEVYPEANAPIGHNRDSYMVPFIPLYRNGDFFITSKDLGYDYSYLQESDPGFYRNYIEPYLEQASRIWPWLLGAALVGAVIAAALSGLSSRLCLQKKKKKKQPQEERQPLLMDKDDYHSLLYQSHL
Excerpt: as §1, §2, §3
The rate of L-DOPA oxidation was measured to assess cellular tyrosinase activity in B16F10 cells exposed to UV. The assay was performed as below described, 20 mM L-DOPA used as the substrates was added to each lysate in a 96-well plate and absorbance of dopachrome formation was measured spectrophotometrically at 475 nm every 10 min for 1 h at 37° C. by a spectrophotometer. The tyrosinase activity was calculated by comparison to a standard curve using tyrosinase (2034 U/mg) and was expressed as unit/mg protein. The data are expressed as a percentage of the tyrosinase activity (unit/mg protein) of non-irradiated and untreated control cells (100%).

[3] = system: HSC; experiment: HSC proliferation by BrdU assay; format: cell-based; details: highest concentration (80 μM), 72 hours
Description: The Cell Proliferation ELISA, BrdU kit was designed to quantitate cell proliferation bases on the measurement of BrdU incorporation during DNA synthesis in proliferation cells. Briefly, cells (1×10^4 cells/well) were seeded in 100 μl medium in a 96-well plate (Nunc, Denmark) and cultured for 24 h to allow the cells to attach and then treated with three different concentrations ([…]) of either Compound A, B, C and D for 24 h, 48 h and 72 h and the plates were incubated in 37° C. After incubation, the culture medium was labeled with 10 μl/well BrdU (Roche Diagnostic Inc.), and the cells were reincubated for addition 16 h at 37° C. Labeling medium was removed using 10 min centrifuge at 200×g and blow dried. Cells were fixed using 200 μl FixDenat solution and incubated for 30 min at room temperature. Removing the FixDenat solution, 100 μl of anti-BrdU-POD was added and incubated for 90 min at room temperature. After the incubation period, microplates were washed three times with PBS buffer and 100 μl substrate solution was added and incubated for 30 min. Stop solution was added (25 μl of 1 M H2SO4) and absorbance of the samples was measured using ELISA reader at 450 nm.

[4] = system: HSC; experiment: HSC apoptosis by cell death detection ELISA; format: cell-based; details: highest concentration (80 μM), 72 hours
Description: Apoptosis was detected with a sandwich immunoassay system using a cell death detection ELISA kit (Roche Diagnostic Inc.). Roche's Cell Death Detection ELISA kit qualitatively and quantitatively detects the amount of cleaved DNA/histone complexes (nucleosomes) in a given sample using a sandwich-enzyme-immunoassay-based method. The cells (1×10^4 cells/well) were seeded in 100 μl medium in a 96-well plate (Nunc, Denmark) and cultured for 24 h to allow the cells to attach and then treated with three different concentrations (8 μM, 24 μM and 80 μM) of either Compound A, B, C and D for 24 h, 48 h and 72 h and the plates were incubated in 37° C. After incubation, the 96 well plates were centrifuged for 10 min at 200×g and removed supernatant and discard, then added 200 μl of lysis buffer per well using multipipetman and incubated 30 min at room temperature, microplates were centrifuged the lysate at 200×g for 10 min. After the centrifuge, 20 μl of the supernatant was transferred into the streptavidin-coated microplate, then added 80 μl of immunoreagent to each well. The microplate was covered with an adhesive foil and incubated on a shaker under gentle shaking for 2 hour at room temperature. After the incubation period, microplates were washed three times with 250-300 μl incubation buffer and 100 μl ABTS solution was added and incubated for 30 min or until color is sufficient for photometric. ABTS Stop solution was added and absorbance of the samples was measured using ELISA reader at 405 nm, reference wavelength at 490 nm.

| tyrosinase activity in UV-irradiated B16F10 cells ([2]; 3 μM) [%] | tyrosinase activity in UV-irradiated B16F10 cells ([2]; 10 μM) [%] | SMILES | melanin production in UV-irradiated B16F10 cells [1] [%] | HSC proliferation (BrdU assay) [3] | apoptosis of HSC (cell death detection assay) [4] |
| --- | --- | --- | --- | --- | --- |
| 43.50±3.5 | 26.75±2.3 | CC(C)=CCOc1ccc(C2=C(CC(C)C)C(=O)OC2=O)cc1 [Compound A, 3-isobutyl-4-[4-(3-methyl-2-butenyloxy)phenyl]furan-2,5-dione] | 23.25±5.5 | – | – |
| 38.5±4.5 | 29.25±2.6 | CC(C)=CCOc1ccc([C@H]2C(=O)N(O)C(=O)[C@@H]2CC(C)C)cc1 (relative stereo) [Compound D, (3R*,4S*)-1-hydroxy-3-isobutyl-4-[4-(3-methyl-2-butenyloxy)phenyl]pyrrolidine-2,5-dione] | 26.32±2.3 | same but delayed | same but delayed |
